Assay results from patent US6069150A, “Use of derivatives of tetrahydro-beta-carbolines as antimetastatic agents” (F. Hoffman-La Roche AG, priority 1996, dated 2000).
Read-outs that look alike come from different tables or passages of the source.

What was measured:
[1] = biological target: T1, MMP8 (human neutrophil collagenase) (Homo sapiens, UniProt P22894); experiment: in vitro test of inhibition of MMP8 (human neutrophil collagenase), fluorescent substrate degradation by catalytic domain of MMP8; format: biochemical; conditions: for inhibition at 0.1 µg/mL: conc. 0.1 μg/ml
T1 construct: by means of the catalytic domain of MMP8
T1 sequence (P22894 100-262 limits assumed): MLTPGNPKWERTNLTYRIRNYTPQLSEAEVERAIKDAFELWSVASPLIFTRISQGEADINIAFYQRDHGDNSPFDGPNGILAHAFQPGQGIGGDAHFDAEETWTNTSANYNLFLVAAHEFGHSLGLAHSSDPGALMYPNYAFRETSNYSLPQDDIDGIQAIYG
Description: The compounds of the present invention have been tested in a pharmacological "in vitro" test of inhibition of MMP8 (human neutrophil collagenase). Said test provides for the determination via fluorescence of the inhibition of the degradation of a fluorescent substrate (DNP-Pro-Leu-Gly-Leu-Trp-Ala-D-Arg-NH2, M1855 Bachem) by means of the catalytic domain of MMP8.
1) DNP-substrate=DNP-Pro-Leu-Gly-Leu-Trp-Ala-D-Arg-NH2 (M1855 Bachem), M.W. 977.1 g/mol, concentration 25 (μM in DMSO; 2) measurement buffer=50 mM TRIS/100 mM NaCl/10 mM CaCl2.2H2 O, adjusted at pH 7.6 with hydrochloric acid. 3) Enzyme=catalytic domain of MMP8 (92 Kda), concentration 0.055 mg/ml in TRIS buffer. Substrate and enzyme are maintained at 0° C. with ice bath.
Total volume=1 ml of solution kept under stirring in a cuvette.
0.01 ml of inhibitor (10 (g/ml).
It is measured the fluorescence at 346 nm both of the control solution (without inhibitor) and of the solution containing the inhibitor. The inhibition of the catalytic activity of MMP8 results in the decrease in the DNP-substrate lysis, with related decrease in the fluorescence of the solution.
The percentage of inhibition is expressed by the following formula:
% Inhibition=100-(rel. unit/timewith inhibitor /rel.
By repeating the experiment at different concentrations of inhibitor it is possible to determine the IC50 value.

[2] = test system: human fibrosarcoma HT1080 cells; experiment: test of chemoinvasion (HT1080 cells through Type IV collagen coated Transwell filters); format: cell-based
Method: The compounds of the present invention have also shown activity in an "[…]" test of chemoinvasion. In the test of chemoinvasion the Costar Transwell chambers for cell culture (diameter: 6.5 mm; pore size: 8 μm) are coated with 100 μl of Type IV collagen (diluted solution 50 μg/ml, then evaporation overnight). With the same procedure the chambers are coated with a second layer of Type IV collagen (100 μl of solution at concentration 50 μg/ml). Before use, the chambers are rinsed twice with sterile water and incubated for about 1 hour at 37° C. in a serum-free medium (DMEM).
The human fibrosarcoma HT1080 cells are harvested by trypsin-EDTA treatment, washed with DMEM+10% FCS and incubated for at least 30 minutes at 37° C. in the same medium. The cells are then washed with serum-free DMEM and resuspended in serum-free DMEM added with 0.1% BSA (fraction V), counted and diluted to obtain a final density of 3×10^5 cell/ml. […]
Incubated filters are then washed with PBS, the cells are fixed 15 min in 4% paraformaldehyde, permeabilized in methanol (10 minutes, -20° C.) and stained with May-Grunwald-Giemsa. Cells which adhere to the top of the filters are removed with a cotton swab, filters are detached from the bottom of the chambers and analyzed with microscope to determine the number of cells on the lower side of the filters. […]

[3] = MMP8 catalytic domain, DNP-substrate, fluorescence at 346 nm, read-out: IC50 (converted)

O=C(O)C1Cc2c([nH]c3ccccc23)CN1 (centres unmarked) [1,2,3,4-tetrahydronorharman-3-carboxylic acid]
IC50 [1, 3]: 324 nM | inhibition at 0.1 µg/mL [1]: 100%

COc1ccc2[nH]c3c(c2c1)CCNC3 [6-methoxy-1,2,3,4-tetrahydronorharmane]
IC50 [1]: 297 nM | inhibition at 0.1 µg/mL [1]: 100%

COc1ccc2[nH]c3c(c2c1)CCNC3C(=O)O (centres unmarked) [6-methoxy-1,2,3,4-tetrahydronorharman-1-carboxylic acid]
IC50 [1, 3]: 203 nM | inhibition at 10 µg/mL ([1]; conc. 10 μg/ml): 100% | IC50 ([2]; HT-1080, 24 h + 24 h): 200 nM | inhibition at 0.1 µM ([2]; HT-1080, conc. 10^-7 M, 24 h + 24 h): 56.5%
